Experimental data taken from ChEMBL document CHEMBL1132305, “Effect of aromatic short-chain analogues of ceramide on axonal growth in hippocampal neurons” (1999).

Organism: Rattus norvegicus
Test: Effect on the growth of axons of hippocampal neurons stimulated by basic fibroblast growth factor (bFGF), no. of axonal branch points/cell at 51 hr upon incubation with bFGF 1.52 0.09
Type: functional

SMILES	No. of axonal branch points/cell
CCCC[C@H](C)[C@@H](OC(=O)C[C@H](CC(=O)O)C(=O)O)[C@@H](C[C@H](C)C[C@@H](O)CCCC[C@@H](O)C[C@H](O)[C@H](C)N)OC(=O)C[C@H](CC(=O)O)C(=O)O	1.12
CCCCCCCC(=O)N[C@@H](CO)[C@H](O)/C=C/c1ccccc1	1.4
CCCCCCC/C=C/[C@@H](O)[C@H](CO)NC(=O)CCCCC	1.3
CC(=O)N[C@@H](CO)[C@H](O)/C=C/c1ccccc1	1.3
CCCCCCC/C=C/[C@H](O)[C@H](CO)NC(=O)CCCCC	1.18
CCCCCC(=O)N[C@@H](CO)[C@H](O)/C=C/c1ccccc1	1.45
CCCC(=O)N[C@@H](CO)[C@H](O)/C=C/c1ccccc1	1.38
CCCCCC(=O)N[C@@H](CO)[C@@H](O)/C=C/c1ccccc1	1.22
CCCCCCC/C=C/[C@@H](O)[C@H](CO)NC(C)=O	1.5
